Test results taken from patent US20250017856A1, “CO-FORMULATION AND CO-DELIVERY OF IONIZABLE COLLOID FORMING DRUGS WITH NUCLEIC ACIDS” (THE GOVERNING COUNCIL OF THE UNIVERSITY OF TORONTO, priority 2023, published 2025).

Assays:
[1] = Hydrodynamic diameter and polydispersity index by dynamic light scattering; assay type: physicochemical; conditions: FxNP
Description: (§1) [NT] antisense (SEQ ID NO: 2): [NT] where “d” denotes a DNA base), siFLuc-2 (sense (SEQ ID NO: 3): [NT] antisense (SEQ ID NO: 4): [NT] where “d” denotes a DNA base and “m” indicates a 2'-O-methyl RNA base), sinLuc (sense (SEQ ID NO: 5): [NT] antisense SEQ ID NO: 6): [NT] where “d” denotes a DNA base), […]1 (sense (SEQ ID NO: 7): [NT] antisense (SEQ ID NO: 8): [NT] where “d” denotes a DNA base and “m” indicates a 2'-O-methyl RNA base), siNT (sense (SEQ ID NO: 9): [NT] antisense (SEQ ID NO: 10): [NT] where “d” denotes a DNA base and “m” indicates a 2'-O-methyl RNA base), mFLuc (EZ Cap Firefly Luciferase mRNA (5-moUTP), ApexBio), rRNA or RNA from Torula utilis yeast (T.U. RNA) was diluted in citrate buffer (50 or 25 mM, pH 4), malate buffer (25 mM, pH 4.0) or acetate buffer (25 mM, pH 4.0). A lipid/drug mix concentration of 5.5 mM was used with a total flow rate of 9 mL/min at a 3:1 ratio of aqueous to organic phase. […] After formulation, buffer exchange into PBS or Tris-buffered saline (TBS; pH 8.5) was performed using Amicon Ultra-4 centrifugal filters (molecular weight cut-off 10 kDa). Hydrodynamic diameter, polydispersity index (PDI), and scattering intensity were measured by dynamic light scattering (DLS) using a DynaPro Plate Reader II (Wyatt Technologies). The instrument was configured with a 60 mW 830 nm laser and a detector angle of 158°. A 25 μL sample of each formulation was pipetted into each well of a 384-well plate and measured with 20 acquisitions per sample at 25° C. […] Quant-iT RiboGreen reagent was added, and fluorescence intensity was quantified using a Tecan Infinite […] plate reader.

[2] = RNA encapsulation efficiency (modified Quant-iT RiboGreen assay) and loading; assay type: physicochemical; conditions: for Encapsulation efficiency (%) / Small molecule drug mass % / siRNA mass %: FxNP; for siRNA encapsulation (in words): drugs that were not colloid formers
Description: as §1

[3] = Zeta potential (Malvern Zetasizer); assay type: physicochemical; conditions: FxNP
Method: Zeta potential was measured by diluting FXNPs in phosphate to an ion concentration of 1 mM and using a Malvern Zetasizer Nano ZS instrument.

[4] = ionizable compound (fulvestrant analog); cited from earlier work

SMILES	Hydrodynamic diameter (nm) ([1]; siFLuc, DSPC)	PDI ([1]; siFLuc, DSPC)	Encapsulation efficiency (%) ([2]; siFLuc, DSPC)	Small molecule drug mass % ([2]; siFLuc, DSPC)	siRNA mass % ([2]; siFLuc, DSPC)	Zeta potential (mV) ([3]; siFLuc, DSPC)	pKa [4]	Hydrodynamic diameter (nm) ([1]; siFLuc, DOPC)	PDI ([1]; siFLuc, DOPC)	Hydrodynamic diameter (nm) ([1]; sinLuc, DOPC)	PDI ([1]; sinLuc, DOPC)	Encapsulation efficiency (%) ([2]; siFLuc, DOPC)	Small molecule drug mass % ([2]; siFLuc, DOPC)	siRNA mass % ([2]; siFLuc, DOPC)	Encapsulation efficiency (%) ([2]; sinLuc, DOPC)	Small molecule drug mass % ([2]; sinLuc, DOPC)	siRNA mass % ([2]; sinLuc, DOPC)	Zeta potential (mV) ([3]; siFLuc, DOPC)	Zeta potential (mV) ([3]; sinLuc, DOPC)	siRNA encapsulation (in words) [2]	other results
CC12CCC3c4ccc(O)cc4CC(CCCCCCCCCS(=O)(CCCC(F)(F)C(F)(F)F)=NC(=O)CCN4CCCC4)C3C1CCC2O (stereo not shown) [7j]	337.1 nm	0.225	72.0%	56.2%	3.7%	−3.56 mV	7.6	–	–	–	–	–	–	–	–	–	–	–	–	–	–
CN1CCN(CC(=O)N=S(=O)(CCCCCCCCCC2Cc3cc(O)ccc3C3CCC4(C)C(O)CCC4C23)CCCC(F)(F)C(F)(F)F)CC1 (stereo not shown) [7i]	338.6 nm	0.218	52.8%	57.2%	2.7%	−3.98 mV	7.4	–	–	–	–	–	–	–	–	–	–	–	–	–	–
CN(C)CC(=O)N=S(=O)(CCCCCCCCCC1Cc2cc(O)ccc2C2CCC3(C)C(O)CCC3C12)CCCC(F)(F)C(F)(F)F (stereo not shown) [7f]	147.8 nm	0.075	94.8%	54.2%	4.9%	−10.01 mV	7.0	155.5 nm	0.041	161.0 nm	0.039	91.3%	54.3%	4.8%	92.4%	54.3%	4.8%	−5.09 mV	−3.97 mV	–	nanoparticle formation with RNA cargos of varying molecular weight ([2]; siRNA, T.U. RNA, rRNA, mRNA): form nanoparticles encapsulating a range of RNA cargos
CC12CCC3c4ccc(O)cc4CC(CCCCCCCCCS(=O)(CCCC(F)(F)C(F)(F)F)=NC(=O)CN4CCOCC4)C3C1CCC2O (stereo not shown) [7a]	149.3 nm	0.022	69.9%	56.3%	3.6%	−12.97 mV	5.1	245.9 nm	0.035	243.5 nm	0.014	58.7%	56.7%	3.0%	79.5%	56.1%	4.0%	−11.27 mV	−11.80 mV	–	–
CC12CCC3c4ccc(O)cc4CC(CCCCCCCCCS(=O)(CCCC(F)(F)C(F)(F)F)=NC(=O)CCn4ccnc4)C3C1CCC2O (stereo not shown) [7c]	136.0 nm	0.017	89.3%	55.6%	4.5%	−10.15 mV	5.5	159.4 nm	0.043	180.1 nm	0.072	87.5%	55.7%	4.4%	73.7%	56.1%	3.8%	−8.02 mV	−10.97 mV	–	–
CN[C@H]1CC[C@@H](c2ccc(Cl)c(Cl)c2)c2ccccc21 [sertraline, reference compound]	–	–	–	–	–	–	–	–	–	–	–	–	–	–	–	–	–	–	–	did not encapsulate siRNA in nanoparticles or encapsulated siRNA at low efficiency	–
CC12CCC3c4ccc(O)cc4CC(CCCCCCCCCS(=O)(CCCC(F)(F)C(F)(F)F)=NC(=O)C[N+](C)(C)C)C3C1CCC2O (stereo not shown) [7l]	539.2 nm	Multimodal	87.6%	54.9%	4.5%	−2.05 mV	–	–	–	–	–	–	–	–	–	–	–	–	–	–	–
CC12CCC3c4ccc(O)cc4CC(CCCCCCCCCS(=O)(CCCC(F)(F)C(F)(F)F)=NC(=O)CN)C3C1CCC2O (stereo not shown) [7m]	447.8 nm	Multimodal	88.1%	53.4%	4.7%	−6.62 mV	8.1	–	–	–	–	–	–	–	–	–	–	–	–	–	–
CC12CCC3c4ccc(O)cc4CC(CCCCCCCCCS(=O)(CCCC(F)(F)C(F)(F)F)=NC(=O)Cn4ccnc4)C3C1CCC2O (stereo not shown) [7b]	141.0 nm	0.019	85.5%	55.2%	4.4%	−12.50 mV	5.4	289.8 nm	0.003	296.2 nm	0.012	81.7%	55.4%	4.2%	84.9%	55.3%	4.4%	−7.61 mV	−11.53 mV	–	–
CC12CCC3c4ccc(O)cc4CC(CCCCCCCCCS(=O)(CCCC(F)(F)C(F)(F)F)=NC(=O)CN4CCCCC4)C3C1CCC2O (stereo not shown) [7e]	132.6 nm	0.041	90.8%	55.7%	4.6%	−11.13 mV	6.4	214.2 nm	0.068	215.1 nm	0.066	90.8%	55.7%	4.6%	89.7%	55.7%	4.5%	−2.88 mV	−7.23 mV	–	–
CC[C@H]1CN2CCc3cc(OC)c(OC)cc3[C@@H]2C[C@@H]1C[C@H]1NCCc2cc(OC)c(OC)cc21 [emetine, reference compound]	–	–	–	–	–	–	–	–	–	–	–	–	–	–	–	–	–	–	–	did not encapsulate siRNA in nanoparticles or encapsulated siRNA at low efficiency	–
CN(C)CCCN1c2ccccc2Sc2ccc(Cl)cc21 [chlorpromazine, reference compound]	–	–	–	–	–	–	–	–	–	–	–	–	–	–	–	–	–	–	–	did not encapsulate siRNA in nanoparticles or encapsulated siRNA at low efficiency	–
CNCCC=C1c2ccccc2CCc2ccccc21 [nortriptyline, reference compound]	–	–	–	–	–	–	–	–	–	–	–	–	–	–	–	–	–	–	–	did not encapsulate siRNA in nanoparticles or encapsulated siRNA at low efficiency	–
